Experimental findings from ChEMBL document CHEMBL6121003, “Design, synthesis, and pharmacological evaluation of triazine-based PI3K/mTOR inhibitors for the potential treatment of non-small cell lung cancer” (Eur J Med Chem, 2025) are described below.

By pIC50 is commonly meant the negative decadic logarithm of the IC50, by convention in mol/L. Usually inhibition stands for the drop in the measured response relative to a control, in per cent. High values mean strong suppression, low ones little suppression.

pIC50: −log10 of the molar value.

In one series the test system is PC-9. As to the kind of experiment: Antiproliferative activity against human PC-9 cells measured after 48 hrs by MTT assay. It counts as functional, cell-based. The following applies: PC-9, 48 h.
A further series deals with HCC827. Briefly: Antiproliferative activity against human HCC827 cells measured after 48 hrs by MTT assay. The series is classed as functional, cell-based. The following applies: HCC827, 48 h.
In series [1] the target is Phosphatidylinositol 4,5-bisphosphate 3-kinase catalytic subunit alpha isoform (Homo sapiens, UniProt P42336).
Description: Inhibition of PI3Kalpha (unknown origin) using PIP2 as substrate measured after 1 hr in presence of ATP by ADP-glo luminescence assay
In series [2] the target is Phosphatidylinositol 4,5-bisphosphate 3-kinase catalytic subunit beta isoform (Homo sapiens, UniProt P42338). As to the kind of experiment: Inhibition of PI3Kbeta (unknown origin) using PIP2 as substrate measured after 1 hr in presence of ATP by ADP-glo luminescence assay. In general terms: ADP-Glo turns the ADP formed in a reaction into a luminescent signal.
Series [3] addresses Phosphatidylinositol 4,5-bisphosphate 3-kinase catalytic subunit gamma isoform (Homo sapiens, UniProt P48736). Briefly: Inhibition of PI3K gamma (unknown origin) using PIP2 as substrate measured after 1 hr in presence of ATP by ADP-glo luminescence assay.
The target in series [4] is T1, Phosphatidylinositol 4,5-bisphosphate 3-kinase catalytic subunit delta isoform (Homo sapiens, UniProt O00329).
T1 sequence (O00329 whole entry): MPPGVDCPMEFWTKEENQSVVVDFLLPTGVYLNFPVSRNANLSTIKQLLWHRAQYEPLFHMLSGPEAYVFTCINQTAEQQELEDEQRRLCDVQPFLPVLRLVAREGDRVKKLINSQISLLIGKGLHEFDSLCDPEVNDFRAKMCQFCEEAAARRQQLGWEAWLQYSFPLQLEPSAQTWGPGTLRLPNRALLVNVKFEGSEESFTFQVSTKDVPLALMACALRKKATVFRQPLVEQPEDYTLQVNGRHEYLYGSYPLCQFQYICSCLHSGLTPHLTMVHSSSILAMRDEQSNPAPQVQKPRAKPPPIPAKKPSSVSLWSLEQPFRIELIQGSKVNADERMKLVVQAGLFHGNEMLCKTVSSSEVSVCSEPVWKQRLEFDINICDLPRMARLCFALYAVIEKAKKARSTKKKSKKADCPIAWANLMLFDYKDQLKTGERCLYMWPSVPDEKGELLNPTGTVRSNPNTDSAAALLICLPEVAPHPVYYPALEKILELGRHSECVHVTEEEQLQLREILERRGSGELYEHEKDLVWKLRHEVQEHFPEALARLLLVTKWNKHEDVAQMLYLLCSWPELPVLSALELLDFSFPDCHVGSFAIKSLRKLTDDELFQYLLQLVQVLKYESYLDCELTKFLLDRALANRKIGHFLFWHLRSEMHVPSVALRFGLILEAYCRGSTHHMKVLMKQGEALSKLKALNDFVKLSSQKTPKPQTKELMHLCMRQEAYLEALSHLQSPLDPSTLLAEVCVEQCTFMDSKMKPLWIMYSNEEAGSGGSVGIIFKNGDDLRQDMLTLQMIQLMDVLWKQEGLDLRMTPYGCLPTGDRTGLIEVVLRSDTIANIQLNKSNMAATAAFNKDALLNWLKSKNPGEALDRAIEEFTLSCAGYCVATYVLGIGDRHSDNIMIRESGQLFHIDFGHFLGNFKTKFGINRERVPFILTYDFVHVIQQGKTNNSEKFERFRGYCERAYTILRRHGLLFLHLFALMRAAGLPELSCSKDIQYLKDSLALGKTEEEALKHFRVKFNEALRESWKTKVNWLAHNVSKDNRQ
Briefly: Inhibition of PI3K delta (unknown origin) using PIP2 as substrate measured after 1 hr in presence of ATP by ADP-glo luminescence assay.

For series [5], the target named is Serine/threonine-protein kinase mTOR (Homo sapiens, UniProt P42345). Briefly: Inhibition of mTOR (unknown origin) using ULight-4E-BP1 as substrate measured after 45 mins in presence of ATP by Lance ultra assay.
Another series deals with T2, CYP1A2 (Homo sapiens, UniProt P05177).
T2 sequence (P05177 whole entry): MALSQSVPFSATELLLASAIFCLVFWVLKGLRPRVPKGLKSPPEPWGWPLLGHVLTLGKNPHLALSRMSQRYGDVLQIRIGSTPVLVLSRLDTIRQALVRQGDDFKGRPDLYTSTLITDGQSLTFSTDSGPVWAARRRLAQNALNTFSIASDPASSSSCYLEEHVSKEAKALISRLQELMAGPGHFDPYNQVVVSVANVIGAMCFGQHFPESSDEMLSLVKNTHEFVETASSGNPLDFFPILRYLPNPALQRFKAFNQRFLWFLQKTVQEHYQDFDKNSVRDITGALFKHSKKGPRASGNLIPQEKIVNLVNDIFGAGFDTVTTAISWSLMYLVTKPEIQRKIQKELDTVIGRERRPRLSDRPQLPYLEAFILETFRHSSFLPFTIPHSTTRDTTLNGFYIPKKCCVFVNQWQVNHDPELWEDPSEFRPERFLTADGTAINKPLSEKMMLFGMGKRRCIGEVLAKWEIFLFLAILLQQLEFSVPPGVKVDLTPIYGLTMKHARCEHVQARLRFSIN
As to the kind of experiment: Inhibition of CYP1A2 (unknown origin) at 10 uM relative to control. The series is classed as ADME.

The target in another series is CYP2C9 (Homo sapiens, UniProt P11712). Briefly: Inhibition of CYP2C9 (unknown origin) at 10 uM relative to control. The series is classed as ADME.
In another series the target is CYP2D6 (Homo sapiens, UniProt P10635). Briefly: Inhibition of CYP2D6 (unknown origin) at 10 uM relative to control. The series is classed as ADME.
Another series addresses CYP3A4 (Homo sapiens, UniProt P08684). Briefly: Inhibition of CYP3A4 (unknown origin) at 10 uM relative to control. The series is classed as ADME.
The next series concerns the target hERG (KCNH2) (Homo sapiens, UniProt Q12809). Briefly: Inhibition of human ERG at 20 uM relative to control. It counts as toxicity.
The nature of series [6]: Toxicity in 8 hrs fasted ICR mouse assessed as effect on blood glucose level at 20 mg/kg, iv measured upto 240 mins by glucometer analysis. It counts as organism-based. The following applies: in vivo, 4 h.
Series [7] is described as follows: Toxicity in nude male Balb/c mouse assessed as effect on body weight at 20 mg/kg, po administered daily for 2 weeks. The series is classed as organism-based. The note with it: in vivo, 336 h.

Sequence of Phosphatidylinositol 4,5-bisphosphate 3-kinase catalytic subunit beta isoform (P42338 whole entry, canonical isoform): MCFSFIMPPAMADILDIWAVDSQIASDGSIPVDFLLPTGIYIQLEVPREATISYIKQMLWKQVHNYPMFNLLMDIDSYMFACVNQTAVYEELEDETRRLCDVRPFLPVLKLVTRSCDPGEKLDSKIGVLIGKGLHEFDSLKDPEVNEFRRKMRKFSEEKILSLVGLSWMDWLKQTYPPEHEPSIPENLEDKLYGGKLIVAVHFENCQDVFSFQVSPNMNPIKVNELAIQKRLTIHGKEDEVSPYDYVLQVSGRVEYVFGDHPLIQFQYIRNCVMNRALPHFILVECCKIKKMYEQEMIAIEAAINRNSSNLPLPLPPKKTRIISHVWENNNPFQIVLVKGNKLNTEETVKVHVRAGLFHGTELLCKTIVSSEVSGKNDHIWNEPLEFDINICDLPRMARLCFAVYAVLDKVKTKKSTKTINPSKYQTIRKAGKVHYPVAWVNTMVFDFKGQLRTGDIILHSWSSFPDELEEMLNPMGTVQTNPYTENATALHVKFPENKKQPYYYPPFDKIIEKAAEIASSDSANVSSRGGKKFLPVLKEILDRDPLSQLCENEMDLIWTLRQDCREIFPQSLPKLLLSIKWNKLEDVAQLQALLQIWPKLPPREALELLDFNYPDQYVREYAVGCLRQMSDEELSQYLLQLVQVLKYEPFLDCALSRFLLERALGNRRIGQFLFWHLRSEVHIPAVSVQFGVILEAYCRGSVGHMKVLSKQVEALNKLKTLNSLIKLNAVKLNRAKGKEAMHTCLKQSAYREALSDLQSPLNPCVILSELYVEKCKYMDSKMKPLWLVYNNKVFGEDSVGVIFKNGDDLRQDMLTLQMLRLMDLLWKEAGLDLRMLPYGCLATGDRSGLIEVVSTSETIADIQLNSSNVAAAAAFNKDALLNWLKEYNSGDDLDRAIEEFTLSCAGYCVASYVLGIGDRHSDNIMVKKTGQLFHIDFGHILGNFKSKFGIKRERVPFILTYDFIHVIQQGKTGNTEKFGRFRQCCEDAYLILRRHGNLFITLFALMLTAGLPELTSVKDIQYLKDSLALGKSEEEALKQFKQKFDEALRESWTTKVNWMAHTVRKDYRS
Sequence of Phosphatidylinositol 4,5-bisphosphate 3-kinase catalytic subunit alpha isoform (P42336 whole entry, canonical isoform): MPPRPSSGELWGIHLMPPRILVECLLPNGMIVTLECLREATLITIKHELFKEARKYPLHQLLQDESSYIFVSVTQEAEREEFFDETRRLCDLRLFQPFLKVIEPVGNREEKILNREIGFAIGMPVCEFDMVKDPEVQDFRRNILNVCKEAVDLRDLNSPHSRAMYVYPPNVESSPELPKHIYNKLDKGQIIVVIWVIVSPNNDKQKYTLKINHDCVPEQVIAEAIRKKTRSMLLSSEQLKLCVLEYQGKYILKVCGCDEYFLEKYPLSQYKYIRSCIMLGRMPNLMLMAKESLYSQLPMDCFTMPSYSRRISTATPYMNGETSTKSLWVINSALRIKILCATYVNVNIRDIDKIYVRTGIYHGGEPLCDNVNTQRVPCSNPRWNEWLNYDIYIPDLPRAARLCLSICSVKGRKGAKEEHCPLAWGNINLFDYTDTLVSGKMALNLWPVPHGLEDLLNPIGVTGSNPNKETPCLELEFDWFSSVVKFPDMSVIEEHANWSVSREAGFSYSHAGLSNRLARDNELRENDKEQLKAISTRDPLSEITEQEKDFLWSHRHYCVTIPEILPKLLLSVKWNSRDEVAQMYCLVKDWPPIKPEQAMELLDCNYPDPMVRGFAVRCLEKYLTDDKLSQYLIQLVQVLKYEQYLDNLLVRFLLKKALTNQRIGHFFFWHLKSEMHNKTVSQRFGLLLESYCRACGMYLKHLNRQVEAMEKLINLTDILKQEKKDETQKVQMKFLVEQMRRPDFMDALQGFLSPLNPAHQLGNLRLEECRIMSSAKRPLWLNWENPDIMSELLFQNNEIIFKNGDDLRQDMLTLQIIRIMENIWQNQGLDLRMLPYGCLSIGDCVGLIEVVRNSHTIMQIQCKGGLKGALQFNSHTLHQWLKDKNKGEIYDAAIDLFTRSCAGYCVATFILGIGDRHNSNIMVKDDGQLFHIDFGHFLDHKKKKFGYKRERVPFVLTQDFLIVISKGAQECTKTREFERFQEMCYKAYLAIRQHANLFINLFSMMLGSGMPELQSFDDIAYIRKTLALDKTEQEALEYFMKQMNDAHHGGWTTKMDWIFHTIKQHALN
Sequence of Phosphatidylinositol 4,5-bisphosphate 3-kinase catalytic subunit gamma isoform (P48736 whole entry, canonical isoform): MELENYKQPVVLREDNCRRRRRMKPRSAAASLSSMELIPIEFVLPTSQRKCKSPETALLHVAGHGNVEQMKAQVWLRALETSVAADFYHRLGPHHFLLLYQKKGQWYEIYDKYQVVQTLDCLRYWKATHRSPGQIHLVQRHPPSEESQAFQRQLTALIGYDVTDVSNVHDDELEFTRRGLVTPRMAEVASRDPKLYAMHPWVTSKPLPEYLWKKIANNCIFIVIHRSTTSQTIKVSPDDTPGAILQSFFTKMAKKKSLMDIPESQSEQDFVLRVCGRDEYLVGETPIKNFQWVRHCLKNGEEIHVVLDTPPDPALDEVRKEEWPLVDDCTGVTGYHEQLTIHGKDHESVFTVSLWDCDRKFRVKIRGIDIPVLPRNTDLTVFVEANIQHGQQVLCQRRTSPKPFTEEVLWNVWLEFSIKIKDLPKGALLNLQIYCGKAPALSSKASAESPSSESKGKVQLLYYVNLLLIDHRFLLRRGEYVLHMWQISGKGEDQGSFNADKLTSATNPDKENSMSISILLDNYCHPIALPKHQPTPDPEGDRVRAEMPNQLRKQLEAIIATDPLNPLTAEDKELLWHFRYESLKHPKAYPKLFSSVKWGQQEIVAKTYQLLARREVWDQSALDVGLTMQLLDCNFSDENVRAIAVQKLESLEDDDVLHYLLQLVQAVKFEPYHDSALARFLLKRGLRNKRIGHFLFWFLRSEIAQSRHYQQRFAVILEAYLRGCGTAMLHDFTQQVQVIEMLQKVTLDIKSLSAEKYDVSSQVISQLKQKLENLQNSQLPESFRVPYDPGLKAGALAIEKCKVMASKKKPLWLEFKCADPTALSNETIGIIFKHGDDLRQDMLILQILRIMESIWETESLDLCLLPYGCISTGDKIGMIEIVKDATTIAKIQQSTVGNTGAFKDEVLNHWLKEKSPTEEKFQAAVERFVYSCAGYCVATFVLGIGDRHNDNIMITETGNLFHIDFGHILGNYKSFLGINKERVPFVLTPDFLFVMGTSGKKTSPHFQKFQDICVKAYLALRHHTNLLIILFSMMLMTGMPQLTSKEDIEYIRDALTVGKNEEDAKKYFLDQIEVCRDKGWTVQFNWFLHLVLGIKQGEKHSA
Sequence of CYP3A4 (P08684 whole entry): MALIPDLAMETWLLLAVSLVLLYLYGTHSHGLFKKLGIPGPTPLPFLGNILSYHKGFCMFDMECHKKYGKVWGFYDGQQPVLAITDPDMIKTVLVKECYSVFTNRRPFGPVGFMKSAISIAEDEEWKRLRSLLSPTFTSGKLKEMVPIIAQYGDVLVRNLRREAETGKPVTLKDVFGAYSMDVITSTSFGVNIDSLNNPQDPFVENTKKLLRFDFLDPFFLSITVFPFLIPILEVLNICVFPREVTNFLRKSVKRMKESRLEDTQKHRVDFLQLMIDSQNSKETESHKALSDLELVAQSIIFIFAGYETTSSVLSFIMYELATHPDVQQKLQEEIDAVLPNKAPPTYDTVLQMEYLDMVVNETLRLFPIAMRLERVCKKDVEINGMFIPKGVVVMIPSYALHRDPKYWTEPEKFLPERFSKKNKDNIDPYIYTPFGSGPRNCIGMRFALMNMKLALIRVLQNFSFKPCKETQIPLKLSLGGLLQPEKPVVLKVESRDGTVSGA
Sequence of CYP2D6 (P10635 whole entry): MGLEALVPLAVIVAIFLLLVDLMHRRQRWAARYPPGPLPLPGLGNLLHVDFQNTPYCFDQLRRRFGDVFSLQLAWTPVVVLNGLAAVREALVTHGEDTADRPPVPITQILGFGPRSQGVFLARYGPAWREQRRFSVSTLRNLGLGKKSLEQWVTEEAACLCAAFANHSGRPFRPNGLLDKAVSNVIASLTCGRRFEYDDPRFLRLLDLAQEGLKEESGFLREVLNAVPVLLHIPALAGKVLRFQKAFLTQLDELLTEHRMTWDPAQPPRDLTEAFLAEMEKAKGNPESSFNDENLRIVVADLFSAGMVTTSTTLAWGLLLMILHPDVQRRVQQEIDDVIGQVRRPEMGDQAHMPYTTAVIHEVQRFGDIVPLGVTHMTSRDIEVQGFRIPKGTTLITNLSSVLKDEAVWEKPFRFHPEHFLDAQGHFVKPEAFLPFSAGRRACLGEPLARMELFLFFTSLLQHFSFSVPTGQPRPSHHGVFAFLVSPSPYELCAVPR
Sequence of CYP2C9 (P11712 whole entry): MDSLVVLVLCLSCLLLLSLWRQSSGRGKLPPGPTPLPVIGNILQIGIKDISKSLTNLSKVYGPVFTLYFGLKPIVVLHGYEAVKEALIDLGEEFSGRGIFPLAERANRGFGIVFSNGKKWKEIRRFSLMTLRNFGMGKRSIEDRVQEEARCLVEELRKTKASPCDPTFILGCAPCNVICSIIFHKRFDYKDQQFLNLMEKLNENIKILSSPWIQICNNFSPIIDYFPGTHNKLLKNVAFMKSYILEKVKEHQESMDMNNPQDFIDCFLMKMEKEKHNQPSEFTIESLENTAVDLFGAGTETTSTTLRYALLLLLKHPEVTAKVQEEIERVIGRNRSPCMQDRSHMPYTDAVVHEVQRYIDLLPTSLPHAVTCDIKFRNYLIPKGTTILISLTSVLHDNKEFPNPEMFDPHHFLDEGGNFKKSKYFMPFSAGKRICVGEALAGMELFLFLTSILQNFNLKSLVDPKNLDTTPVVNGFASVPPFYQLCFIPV

As to `O=C(c1ccc(NC(=S)Nc2ccc(-c3nc(N4CCOCC4)nc(N4CCOCC4)n3)cc2)cc1)N1CCCC(CO)C1` (stereo unspecified), the pIC50 is 5.36 in the series on PC-9, 5.70 with HCC827 and 7.44 in series [1].

With `O=C(Nc1ccc(C(=O)N2CCC[C@H]2CO)cc1)Nc1ccc(-c2nc(N3CCOCC3)nc(N3CCOCC3)n2)cc1`, the pIC50 in [2] is 8.96; in series [3], 8.32; in series [4], 8.03; in [5], 8.54. Besides, the inhibition at 10 µM worked out at 10% at CYP1A2, 15% at CYP2C9, 25% against CYP2D6 and 20% against CYP3A4. For the same molecule, testing at 20 µM on hERG (KCNH2) gave an inhibition of 15%.

As for `CN1CCN(C(=O)c2ccc(NC(=S)Nc3ccc(-c4nc(N5CCOCC5)nc(N5CCOCC5)n4)cc3)cc2)CC1`, the pIC50 in series [2] was 6.77; in [3] it was 6.18; in series [4], 6.47; in [5], 6.90.

`O=C(c1ccc(NC(=S)Nc2ccc(-c3nc(N4CCOCC4)nc(N4CCOCC4)n3)cc2)cc1)N1CCN(C(=O)C2CCCO2)CC1` (stereo unspecified): the pIC50 in the series on PC-9 is 4.49; in the series on HCC827, 4.70; in series [1], 7.69.

As for `O=C(c1ccc(NC(=S)Nc2ccc(-c3nc(N4CCOCC4)nc(N4CCOCC4)n3)cc2)cc1)N1CCC[C@H]1CO`, the pIC50 was 7.45 in [2], 6.91 in [3], 6.97 in series [4] and 7.61 in [5].

In the case of `O=C(Nc1ccc(C(=O)N2CCC[C@@H]2CO)cc1)Nc1ccc(-c2nc(N3CCOCC3)nc(N3CCOCC3)n2)cc1`, the pIC50 in series [2] was 7.37; in series [3] it was 7.49; in [4], 7.47; in series [5], 8.31.

`O=C(c1ccc(NC(=S)Nc2ccc(-c3nc(N4CCOCC4)nc(N4CCOCC4)n3)cc2)cc1)N1CCCCC1CO` (stereo unspecified) gave a pIC50 in [1] of 7.15.

`CN(C)C1CCN(C(=O)c2ccc(NC(=O)Nc3ccc(-c4nc(N5CCOCC5)nc(N5CCOCC5)n4)cc3)cc2)CC1` [GEDATOLISIB]: the Activity entry in [6] is “Toxic”; in series [7], “Non-toxic”.

For `COc1ncc(-c2ccc3nccc(-c4ccnnc4)c3c2)cc1NS(=O)(=O)c1ccc(F)cc1F` [OMIPALISIB], in series [3], the pIC50 was 9.07.
